Assay results: article doi:10.1101/2023.08.28.23294750v1 (medrxiv, 2023)

Target: T1, SARS-CoV-2 3CL^pro (Severe acute respiratory syndrome coronavirus 2, UniProt P0DTD1)
Assay: FRET assay, fluorogenic peptide cleavage
Type: biochemical
Conditions: not given

Compound	IC50 [µM]
O=C(O)c1cc(O)c2c(c1)C(=O)c1cccc(O)c1C2=O [compound 3, rhein]	4.6
Cc1c(C(=O)O)c(O)cc2c1C(=O)c1c(O)cccc1C2=O [compound 10, 3,8-dihydroxy-1-methylanthraquinone-2-carboxylic acid]	37.2

Target: T1, SARS-CoV-2 3CL^pro
Assay: FRET assay, fluorogenic peptide cleavage
Type: biochemical
Conditions: read-out: % inhibition at 100 μmol/L

Compound	inhibition at 100 µM [%]
OCCc1ccc(O)c(O)c1 [hydroxytyrosol]	< 50
O=C(O)c1cc(O)c(O)c(O)c1 [compound 42, gallic acid]	< 50
COc1c(O)cc(C(=O)O)cc1O [M42M2, 4-O-methylgallic acid]	< 50
COc1cc([C@H]2OC[C@H]3[C@@H]2CO[C@H]3c2ccc(OC)c(OC)c2)ccc1O [phillygenin]	< 50
O=C1c2cccc(O)c2C(=O)c2c(O)cc(CO)cc21 [compound 11, aloe-emodin]	< 50
